Source: patent publication US6329349A, “Methods for reducing ischemic injury of the heart via the sequential administration of monophosphoryl lipid A and adenosine receptor agents” (priority 2000, dated 2001)
“Also recorded” adds a separate entry of the source. Like-named read-outs stand apart in the source and are kept apart here.

Experiments:
[1] = test system: Rat Brain A1 and A2 -Receptors; conditions: radioligand binding, Table I; cited from earlier work
[2] = test system: cultured chick ventricular myocytes; experiment: Simulated ischemia (hypoxia and glucose deprivation) injury in cultured ventricular myocytes, percentage of cells killed; type: cell-based; conditions: for number of cells killed; agent present during prolonged ischemia after MLA pretreatment vs vehicle pretreatment: MLA 300 ng/ml for 4 h, 24 h prior, agent present during 90 min simulated ischemia; for percentage of myocytes killed; preconditioning effect of the agent after MLA pretreatment vs vehicle pretreatment: MLA (30 or 300 ng/ml) 24 h prior to 5 min exposure to the agent, 10 min agent-free, then 90 min simulated ischemia
Method: Ventricular cells were cultured from chick embryos 14 days in ovo (Spafas Inc., Storrs, Conn.) as previously described (16, 23). Cells were cultivated in a humidified 5% CO2 -95% air mixture at 37 C. […] The medium was changed to a HEPES-buffered medium containing (mM) 139 NaCl, 4.7 KCl, 0.5 MgCl2, 0.9 CaCl2, 5 HEPES (N-2-hydroxyethylpiperazine-N'-2-ethanesulfonic acid) and 2% fetal bovine serum, pH 7.4, 37 C. before exposing the myocytes to the various conditions at 37 C. Control myocytes were maintained in HEPES-buffered medium under room air. Hypoxia and glucose deprivation were used to induce and simulate ischemia in the cultured cells. Hypoxia was produced by placing the cells in a hypoxic incubator (NuAire) where O2 was replaced by N2 as previously described (16,23).
The extent of hypoxia-induced injury to the ventricular cell was quantitatively determined by the percentages of cells killed. To quantitate the % of cells killed, cells were exposed to a trypsin-EDTA Hanks' balanced salt solution for 10 minutes for detachment after the various treatment, followed by centrifugation (300×g for 10 minutes) and resuspension in culture media for counting in a hemocytometer. Only live cells sedimented and the cells counted represented those that survived (46). None of the sedimented cells subsequently counted included trypan blue. […] There was no protein in the culture media following a second 300×g centrifugation of resuspended cells previously treated with trypsin-EDTA.
The percentage of cells killed was calculated as the number of cells obtained from the control group (representing cells not subjected to any hypoxia or drug treatment) minus the number of cells from the treatment group divided by number of cells in control group multiplied by 100%. […]
In this experiment, myocytes were treated with either the vehicle (0.04% propylene glycol, 0.01% ethyl alcohol) or MLA 24 hours prior to a 5 minute exposure to 10 μM adenosine. Adenosine was removed by replacement of the culture medium with adenosine-free medium, and the cells were exposed to normal room air O2 for 10 minutes, followed by 90 minutes of simulated ischemia treatment.
The experimental protocol utilized in these studies entailed pretreatment of myocytes with MLA for a 4 hour period 24 hours prior to exposure of the cardiac myocytes to 90 minutes of simulated ischemia. During this 90 minute simulated ischemia period, several cardioprotective agents were administered individually to cells and their protective effects were assessed.
Additional experiments were performed to assess the differences in cardioprotection observed when MLA was administered as the second cardioprotective agent and an adenosine agonist, KATP channel opener or protein kinase C activator was administered as the first cardioprotective agent. The experiments were performed as follows: Cardiac myocytes were exposed to the first cardioprotective agent for 5 minutes and the agent was removed. Cells were then exposed to a period of simulated ischemia in the presence or absence of 300 ng/ml of MLA. The percentage of cells killed by simulated ischemia alone was 27±2% (n=9) in the absence of any treatment with any cardioprotective agent. When MLA was present during the simulated ischemia, the percentage of cells killed was reduced from 27±2% to 14±1.2%. When cells were exposed to 5 minutes of 10 μM pinacidil, a KATP channel opener followed by exposure to simulated ischemia (in the absence of MLA), the percentage of cells killed was 12.3±1. When the pinacidil-treated cells were exposed to simulated ischemia in the presence of MLA, the percentage of cells killed was reduced from 12.3±1% to 6.3±1.2% (n=3). When cells were exposed to 5 minutes of 1 μM PMA, a PKC activator, followed by exposure to simulated ischemia (in the absence of MLA), the percentage of cells killed was 14±1. […]

[3] = biological target: A1 adenosine receptor; conditions: Table II; cited from earlier work
[4] = biological target: A2a adenosine receptor; conditions: Table II; cited from earlier work
[5] = biological target: A3 adenosine receptor; conditions: cited from earlier work
[6] = biological target: A2; conditions: table of Compound 8; cited from earlier work
[7] = 5 min exposure to first agent (10 μM pinacidil, 1 μM PMA or 10 μM adenosine), removed, then simulated ischemia in the absence of MLA
[8] = 5 min exposure to first agent (10 μM pinacidil, 1 μM PMA or 10 μM adenosine), removed, then simulated ischemia in the presence of 300 ng/ml MLA

COc1ccccc1/C=C/c1nc2c(c(=O)n(C)c(=O)n2C)n1C [17b]
A1 /A2 ratio [1]: 18

COc1cccc(/C=C/c2nc3c(c(=O)n(C)c(=O)n3C)n2C)c1 [19b]
A1 /A2 ratio [1]: 64

Cn1c(=O)c2c(nc(/C=C/c3cccc(C(F)(F)F)c3)n2C)n(C)c1=O [20b]
A1 /A2 ratio [1]: 25

Cn1c(=O)c2c(nc(/C=C/c3cccc([N+](=O)[O-])c3)n2C)n(C)c1=O [21b]
A1 /A2 ratio [1]: 11

Cn1c(=O)c2c(nc(/C=C/c3cccc(N)c3)n2C)n(C)c1=O [22b]
A1 /A2 ratio [1]: 30

Cn1c(=O)c2c(nc(/C=C/c3cccc(F)c3)n2C)n(C)c1=O [27b]
A1 /A2 ratio [1]: 190

COc1ccc(/C=C/c2nc3c(c(=O)n(C)c(=O)n3C)n2C)cc1 [29b]
A1 /A2 ratio [1]: 44

COc1ccc(/C=C/c2nc3c(c(=O)n(C)c(=O)n3C)n2C)cc1OC [32b]
A1 /A2 ratio [1]: 70

COc1cc(/C=C/c2nc3c([nH]2)c(=O)n(C)c(=O)n3C)cc(OC)c1 [33a]
A1 /A2 ratio [1]: 25

COc1cc(/C=C/c2nc3c(c(=O)n(C)c(=O)n3C)n2C)cc(OC)c1 [33b]
A1 /A2 ratio [1]: > 200

Cn1c(=O)c2c(nc(/C=C/c3cc(F)cc(F)c3)n2C)n(C)c1=O [34b]
A1 /A2 ratio [1]: 230

COc1ccc(/C=C/c2nc3c(c(=O)n(C)c(=O)n3C)n2C)c(OC)c1OC [43b]
A1 /A2 ratio [1]: 34

COc1cc(/C=C/c2nc3c(c(=O)n(C)c(=O)n3C)n2C)cc(OC)c1OC [44b]
A1 /A2 ratio [1]: 70

CCCn1c(=O)c2c(nc(/C=C/c3cc(OC)cc(OC)c3)n2C)n(CCC)c1=O [53b]
A1 /A2 ratio [1]: 110

OC[C@H]1O[C@@H](n2cnc3c(NC4CCCC4)nc(Cl)nc32)[C@H](O)[C@@H]1O [CCPA, 2-chloro-N^6-cyclopentyl-adenosine]
number of cells killed; agent present during prolonged ischemia after MLA pretreatment vs vehicle pretreatment [2]: greater reduction in the number of cells killed | percentage of myocytes killed; preconditioning effect of the agent after MLA pretreatment vs vehicle pretreatment [2]: significantly reduced the percentage of myocytes killed; also recorded: enhanced by pretreatment of myocytes with MLA

CCNC(=O)[C@H]1O[C@@H](n2cnc3c(NC(=O)Nc4ccccc4C(F)(F)F)ncnc32)[C@H](O)[C@@H]1O [Compound 4d, N^6-((2-trifluoromethyl)carbamoyl)adenosine-5'uronamide]
Ki [3]: 0.384 µM | Ki [4]: > 10 µM | Ki ([5]; Table II): 0.054 µM

CCNC(=O)[C@H]1O[C@@H](n2cnc3c(NC(=O)Nc4cccc(I)c4)ncnc32)[C@H](O)[C@@H]1O [Compound 4q, N^6-((3-iodophenyl)carbamoyl)adenosine-5'uronamide]
Ki [4]: 3.94 µM | Ki ([5]; Table II): 0.03 µM

NCCNC(=O)Cc1ccc(NC(=O)Cc2ccc(Nc3ncnc4c3ncn4[C@@H]3O[C@H](CO)[C@@H](O)[C@H]3O)cc2)cc1 [Compound 8]
Ki ([5]; table of Compound 8): 0.004 µM | Ki [6]: 0.21 µM

CNC(=O)[C@H]1O[C@@H](n2cnc3c(NOc4ccccc4)ncnc32)[C@H](O)[C@@H]1O [Compound 11, 6-(O-Phenylhydroxylamino)purine-9-beta-ribofuranoside-5'-N-methyluronamide]
Ki [3]: 2.06 µM | Ki [4]: 66.3 µM | Ki ([5]; Table II): 1.34 µM

CNC(=O)[C@H]1O[C@@H](n2cnc3c(NCc4cccc(I)c4)ncnc32)[C@H](O)[C@@H]1O [IB-MECA, N^6-(3-iodobenzyl)adenosine-5'-N-methyluronamide]
number of cells killed; agent present during prolonged ischemia after MLA pretreatment vs vehicle pretreatment [2]: synergistic cardioprotective effect | percentage of myocytes killed; preconditioning effect of the agent after MLA pretreatment vs vehicle pretreatment [2]: significantly reduced the percentage of myocytes killed; also recorded: enhanced by pretreatment of myocytes with MLA

CCNC(=O)[C@H]1O[C@@H](n2cnc3c(NC4CCCCC4)ncnc32)[C@H](O)[C@@H]1O [N^6 -cyclohexyl NECA, N6-cyclohexyl 5'-N-ethylcarboxamidoadenosine]
Ki [3]: 0.00043 µM | Ki [4]: 0.17 µM | Ki ([5]; Table II): 0.016 µM

CCCCCCCCCCCCCC(=O)O[C@@H]1[C@@H](C)[C@@]2(O)[C@@H](C=C(CO)C[C@]3(O)C(=O)C(C)=C[C@@H]23)[C@@H]2C(C)(C)[C@]12OC(C)=O [PMA, Phorbol 12-myristate 13-acetate]
percentage of cells killed [2, 7]: 14±1% | percentage of cells killed [2, 8]: 10.5±1% | percentage of myocytes killed; preconditioning effect of the agent after MLA pretreatment vs vehicle pretreatment [2]: enhanced by pretreatment with MLA

Nc1ncnc2c1ncn2[C@@H]1O[C@H](CO)[C@@H](O)[C@H]1O [adenosine]
percentage of cells killed [2, 7]: 12±1.4% | percentage of cells killed [2, 8]: 7.4±1.2% | percentage of myocytes killed; preconditioning effect of the agent after MLA pretreatment vs vehicle pretreatment [2]: significantly decreased the percentage of myocytes killed

CC(=O)Nc1cccc(/C=C/c2nc3c(c(=O)n(C)c(=O)n3C)n2C)c1 [compound 23]
A1 /A2 ratio [1]: 240

Cn1c(=O)c2c(nc(/C=C/c3cccc(NC(=O)CCC(=O)O)c3)n2C)n(C)c1=O [compound 24]
A1 /A2 ratio [1]: 250

Cn1c(=O)c2c(nc(/C=C/c3cccc(NC(=O)OC(C)(C)C)c3)n2C)n(C)c1=O [compound 25]
A1 /A2 ratio [1]: 30

Cn1c(=O)c2c(nc(/C=C/c3cccc(N(C(=O)OC(C)(C)C)C(=O)OC(C)(C)C)c3)n2C)n(C)c1=O [compound 26]
A1 /A2 ratio [1]: 15

COc1cc(/C=C/c2nc3c(c(=O)n(C)c(=O)n3C)n2C)cc(OC)c1O [compound 35]
A1 /A2 ratio [1]: 19

COc1cc(/C=C/c2nc3c(c(=O)n(C)c(=O)n3C)n2C)cc(OC)c1OC(C)=O [compound 36]
A1 /A2 ratio [1]: 93

COc1cc(/C=C/c2nc3c(c(=O)n(C)c(=O)n3C)n2C)cc(OC)c1OCCCCN [compound 38]
A1 /A2 ratio [1]: 36

COc1cc(/C=C/c2nc3c(c(=O)n(C)c(=O)n3C)n2C)cc(OC)c1OCCCCNC(=O)OC(C)(C)C [compound 39]
A1 /A2 ratio [1]: 42

COc1cc(/C=C/c2nc3c(c(=O)n(C)c(=O)n3C)n2C)cc(OC)c1OC/C=C/CN [compound 40]
A1 /A2 ratio [1]: 28

COc1cc(/C=C/c2nc3c(c(=O)n(C)c(=O)n3C)n2C)cc(OC)c1OC/C=C/CNC(C)=O [compound 41]
A1 /A2 ratio [1]: > 50

COc1cc(/C=C/c2nc3c(c(=O)n(C)c(=O)n3C)n2C)cc(OC)c1OC/C=C/CNC(=O)OC(C)(C)C [compound 42]
A1 /A2 ratio [1]: > 40

C=CCn1c(=O)c2c(nc(/C=C/c3cc(OC)c(OC)c(OC)c3)n2C)n(CC=C)c1=O [compound 46]
A1 /A2 ratio [1]: 13

CC(N/C(=N\C#N)Nc1ccncc1)C(C)(C)C (centres unmarked) [pinacidil]
percentage of cells killed [2, 7]: 12.3±1% | percentage of cells killed [2, 8]: 6.3±1.2% | number of cells killed; agent present during prolonged ischemia after MLA pretreatment vs vehicle pretreatment [2]: greater reduction in the number of cells killed | percentage of myocytes killed; preconditioning effect of the agent after MLA pretreatment vs vehicle pretreatment [2]: enhanced the preconditioning response mediated by pinacidil

Monophosphoryl lipid A [MLA]
percentage of cells killed ([2]; 300 ng/ml MLA present during simulated ischemia, no first agent, untreated 27±2%): 14±1.2% | percentage of cell death in response to prolonged ischemia ([2]; MLA 30 and 300 ng/ml for 4 h, 24 h prior to 90 min simulated ischemia, vs untreated, p<0.01): significantly lowered the percentage of cell death | percentage of cells killed during prolonged ischemia after preconditioning ischemia ([2]; MLA 4 h pretreatment, 24 h later 5 min preconditioning ischemia, 10 min recovery, 90 min simulated ischemia): dose-dependent reduction in the percentage of cells killed
